Selectivity ratio, IC50 and Stability data for 21 compounds are collected here from ChEMBL document CHEMBL3774384, “Synthesis of fusidic acid bioisosteres as antiplasmodial agents and molecular docking studies in the binding site of elongation factor-G” (Medchemcomm, 2015).

The nature of data set [1]: Selectivity index, ratio of IC50 for CHO cells to IC50 for Plasmodium falciparum NF54. The class given is toxicity, cell-based. To be noted: hamster, read-out: Ratio IC50.
Data set [2] has as its system Plasmodium falciparum. Briefly: Antiplasmodial activity against chloroquine sensitive Plasmodium falciparum NF54 infected in human RBC after 48 hrs by [3H]hypoxanthine incorporation assay. The data set is classed as functional, organism-based.
A further data set deals with CHO. The data set is described as follows: Cytotoxicity against CHO assessed as cell viability after 48 hrs by MTT assay. The data set is classed as cell-based. The note with it: Cricetulus griseus. A general note: Tetrazolium assays rely on reduction of a dye to a coloured formazan, in cell work by metabolically active cells.
Data set [3] can be described thus: Stability in RPMI medium supplemented with HEPES, NaHCO3, Neomycin and Albumax II after 48 hrs. The class given is physicochemical.
For data set [4], the system named is Plasmodium falciparum. The data set is described as follows: Antiplasmodial activity against Plasmodium falciparum D10 infected in human RBC after 48 to 96 hrs by SYBR Green I dye-based fluorescence assay. The class given is functional, organism-based.

In the case of `CC(=O)O[C@H]1C[C@@]2(C)[C@@H](C[C@@H](O)[C@H]3[C@@]4(C)CC[C@@H](O)[C@@H](C)[C@@H]4CC[C@@]32C)/C1=C(\CCC=C(C)C)C(=O)NNC(=O)c1cccs1`, in data set [1], the selectivity ratio is 9. In addition, the half-maximal inhibitory concentration (IC50) in the data set with Plasmodium falciparum [2] stood at 8.4 µM; in the data set on CHO, 78.8 µM.
As to `CC(=O)O[C@H]1C[C@@]2(C)[C@@H](C[C@@H](O)[C@H]3[C@@]4(C)CC[C@@H](O)[C@@H](C)[C@@H]4CC[C@@]32C)/C1=C(\CCC=C(C)C)C(=O)NS(C)(=O)=O`, the IC50 in the data set on Plasmodium falciparum [2] is greater than 15 µM; in the data set with CHO it was greater than 169 µM.
Turning to `CC(=O)O[C@H]1C[C@@]2(C)[C@@H](C[C@@H](O)[C@H]3[C@@]4(C)CC[C@@H](O)[C@@H](C)[C@@H]4CC[C@@]32C)/C1=C(\CCC=C(C)C)C(N)=O`, the selectivity ratio in data set [1] is 3. Moreover, the results for the IC50 with Plasmodium falciparum [2] and in the data set with CHO were 35.9 µM and 113 µM, respectively.
As to `CCCc1noc(/C(CCC=C(C)C)=C2\[C@@H](OC(C)=O)C[C@@]3(C)[C@H]2C[C@@H](O)[C@H]2[C@@]4(C)CC[C@@H](O)[C@@H](C)[C@@H]4CC[C@@]23C)n1`, in data set [1], the selectivity ratio is 32. The results for the 50% inhibitory concentration (IC50) with Plasmodium falciparum [2] and with CHO were 2.1 µM and 68.2 µM, respectively.
Taken in the same sequence, the figures for `CC(=O)O[C@H]1C[C@@]2(C)[C@@H](C[C@@H](O)[C@H]3[C@@]4(C)CC[C@@H](O)[C@@H](C)[C@@H]4CC[C@@]32C)/C1=C(\CCC=C(C)C)C(=O)NNS(=O)(=O)c1ccc(Cl)cc1` were 2, 31.3 µM and 53.2 µM.
Taken in the same sequence, the figures for `CC(=O)O[C@H]1C[C@@]2(C)[C@@H](C[C@@H](O)[C@H]3[C@@]4(C)CC[C@@H](O)[C@@H](C)[C@@H]4CC[C@@]32C)/C1=C(\CCC=C(C)C)C(=O)NS(=O)(=O)c1ccc(F)c(F)c1` were 11, 7.3 µM and 81.4 µM.
The matching figures for `CC(=O)O[C@H]1C[C@@]2(C)[C@@H](C[C@@H](O)[C@H]3[C@@]4(C)CC[C@@H](O)[C@@H](C)[C@@H]4CC[C@@]32C)/C1=C(\CCC=C(C)C)c1nc(-c2ccc(F)cc2)no1`: 46, 1.7 µM and 77.4 µM.
`CCCS(=O)(=O)NNC(=O)/C(CCC=C(C)C)=C1\[C@@H](OC(C)=O)C[C@@]2(C)[C@H]1C[C@@H](O)[C@H]1[C@@]3(C)CC[C@@H](O)[C@@H](C)[C@@H]3CC[C@@]12C`: the selectivity ratio in data set [1] was 14. Further, the 50% inhibitory concentration (IC50) with Plasmodium falciparum [2] was 5.7 µM; in the data set with CHO, 79.7 µM.
The matching figures for `CC(=O)O[C@H]1C[C@@]2(C)[C@@H](C[C@@H](O)[C@H]3[C@@]4(C)CC[C@@H](O)[C@@H](C)[C@@H]4CC[C@@]32C)/C1=C(\CCC=C(C)C)c1nc(C)no1`: 13, 3.8 µM and 47.8 µM.
As for `C[C@H]1[C@H](OC(=O)CCC(=O)O)O[C@@H]2O[C@@]3(C)CC[C@H]4[C@H](C)CC[C@@H]1[C@@]24OO3` [ARTESUNATE], in the data set on Plasmodium falciparum [2], the 50% inhibitory concentration (IC50) was determined as 0.004 µM.
`CCCCS(=O)(=O)NNC(=O)/C(CCC=C(C)C)=C1\[C@@H](OC(C)=O)C[C@@]2(C)[C@H]1C[C@@H](O)[C@H]1[C@@]3(C)CC[C@@H](O)[C@@H](C)[C@@H]3CC[C@@]12C`: in data set [1], the selectivity ratio worked out at 6. Besides, the results for the IC50 in the data set on Plasmodium falciparum [2] and in the data set with CHO were 8 µM and 49.9 µM, respectively.
The matching figures for `CCS(=O)(=O)NNC(=O)/C(CCC=C(C)C)=C1\[C@@H](OC(C)=O)C[C@@]2(C)[C@H]1C[C@@H](O)[C@H]1[C@@]3(C)CC[C@@H](O)[C@@H](C)[C@@H]3CC[C@@]12C`: 6, 12.4 µM and 77.3 µM.
As to `CC(=O)O[C@H]1C[C@@]2(C)[C@@H](C[C@@H](O)[C@H]3[C@@]4(C)CC[C@@H](O)[C@@H](C)[C@@H]4CC[C@@]32C)/C1=C(\CCC=C(C)C)c1n[nH]c(=O)o1`, the selectivity ratio in data set [1] stood at 9. The IC50 was found to be 9.2 µM in the data set on Plasmodium falciparum [2] and 82 µM in the data set on CHO.
Taken in the same sequence, the figures for `CC(=O)O[C@H]1C[C@@]2(C)[C@@H](C[C@@H](O)[C@H]3[C@@]4(C)CC[C@@H](O)[C@@H](C)[C@@H]4CC[C@@]32C)/C1=C(\CCC=C(C)C)C(=O)NNS(=O)(=O)c1ccc(C)cc1` were 4, 13.4 µM and 48.2 µM.
Taken in the same sequence, the figures for `CCc1noc(/C(CCC=C(C)C)=C2\[C@@H](OC(C)=O)C[C@@]3(C)[C@H]2C[C@@H](O)[C@H]2[C@@]4(C)CC[C@@H](O)[C@@H](C)[C@@H]4CC[C@@]23C)n1` were 38, 1.9 µM and 71.7 µM.
The matching figures for `CC(=O)O[C@H]1C[C@@]2(C)[C@@H](C[C@@H](O)[C@H]3[C@@]4(C)CC[C@@H](O)[C@@H](C)[C@@H]4CC[C@@]32C)/C1=C(\CCC=C(C)C)C(=O)NC#N`: greater than 17, 10.8 µM and greater than 185 µM.
Consider `CC(=O)O[C@H]1C[C@@]2(C)[C@@H](C[C@@H](O)[C@H]3[C@@]4(C)CC[C@@H](O)[C@@H](C)[C@@H]4CC[C@@]32C)/C1=C(\CCC=C(C)C)C(=O)NS(=O)(=O)c1ccccc1`, for which the IC50 with Plasmodium falciparum [2] was greater than 15 µM; in the data set on CHO it was 96.1 µM.
`CC(=O)O[C@H]1C[C@@]2(C)[C@@H](C[C@@H](O)[C@H]3[C@@]4(C)CC[C@@H](O)[C@@H](C)[C@@H]4CC[C@@]32C)/C1=C(\CCC=C(C)C)C(=O)NN`: the selectivity ratio in data set [1] turned out to be 5. In addition, the IC50 stood at 21.3 µM in the data set on Plasmodium falciparum [2] and 112 µM with CHO.
For `CC(=O)O[C@H]1C[C@@]2(C)[C@@H](C[C@@H](O)[C@H]3[C@@]4(C)CC[C@@H](O)[C@@H](C)[C@@H]4CC[C@@]32C)/C1=C(\CCC=C(C)C)C(=O)Nc1nn[nH]n1`, the values for the IC50 in the data set with Plasmodium falciparum [2] and with CHO were greater than 15 µM and greater than 171 µM, respectively.
Turning to `CC(=O)O[C@H]1C[C@@]2(C)[C@@H](C[C@@H](O)[C@H]3[C@@]4(C)CC[C@@H](O)[C@@H](C)[C@@H]4CC[C@@]32C)/C1=C(\CCC=C(C)C)c1n[nH]c(=S)o1`, in data set [1], the selectivity ratio came to 10. Moreover, the IC50 in the data set on Plasmodium falciparum [2] came to 7 µM; with CHO, 70 µM.
As for `CC(=O)O[C@H]1C[C@@]2(C)[C@@H](C[C@@H](O)[C@H]3[C@@]4(C)CC[C@@H](O)[C@@H](C)[C@@H]4CC[C@@]32C)/C1=C(\CCC=C(C)C)C(=O)O` [FUSIDIC ACID], the Stability entry in data set [3] is “Stable”. Moreover, in data set [1], the selectivity ratio is greater than 3. In addition, the IC50 in the data set with Plasmodium falciparum [2] was 59 µM; in the data set with CHO it was greater than 194 µM; with Plasmodium falciparum [4], 52.8 µM.

One may read the IC50 as the concentration that inhibits the measured activity by half.
